Converted amounts (≈) assume the structure as drawn. Positions of bridges follow the written chain, without caps; N, C: chain ends. Residues, ends and D or L forms follow the SMILES beside them. Groups on a side chain read outwards from the residue. Chains are numbered I, II in the order given. *: point of attachment. X2 = NCCCC[C@H](N)C(=O)NCCCC[C@H](NC(=O)[C@@H](N)CCCCN)C(=O)*; Palmitoyl = CCCCCCCCCCCCCCCC(=O)*
Experiments:
Assay type in all cases: cell-based
[1] = test system: Escherichia coli (strain DH5α); conditions: DH5α
Method: (§1) Antimicrobial activity was assayed against Bacillus subtilis (strain BR151), Escherichia coli (strain DH5α) and Pseudomonas aeruginosa (strain PA01). Microdilution broth method was used to determine the minimal inhibitory concentration (MIC). A colony of bacteria was grown in LB-medium overnight at 37° C. The concentration was quantified by measuring absorbance at 600 nm and diluted to OD600=0.1 (1×10^8 CFU/mL). The samples were prepared as stock solutions of 1 mg mL^−1 in H2O and diluted serially by ⅔ in nutrient LB in a 96-well microtiterplate (Cornstar, polypropylene, untreated). The sample solutions (50 μL) were mixed with the diluted bacterial suspension with an OD600 nm of 0.001 (50 μL). […] The plates were incubated at 37° C. until satisfactory growth (18-24 h). For each test, two columns of the plate were kept for sterility control (SC, broth only) and growth control (GC, broth with bacterial inoculums, no antibiotics). 10 μL of a solution of MTT (0.1% in H2O) was added to each well. The minimal inhibitory concentration (MIC) was defined as the lowest concentration of the antimicrobial substance (peptide dendrimer) that inhibited visible growth of the tested bacteria (yellow) with the unaided eye. For microbiological study the linear peptide LysTyrLysLysAlaLeuLysLysLeuAlaLysLeuLeu (SEQ ID No. 1) was used as reference.
(§2) The AMPD library was tested for their antimicrobial activity against B. subtilis BR151, a Gram-positive bacterium and E. coli DH5α, another Gram-negative bacterium, to cover a broader spectrum of different bacteria. […] Therefore no explicit SAR can be established, but clearly the hydrophobic amino acids Ala and Tyr seem to have a significant influence in reducing activity.

[2] = test system: Bacillus subtilis (strain BR151); conditions: strain BR151
Method: as §1, §2

[3] = test system: Pseudomonas aeruginosa (strain PA01); assay: microbe, parasite or virus in culture; conditions: strain
Method: as §1
All peptides were tested for their activity against P. aeruginosa PAO1 in a broth dilution assay (Wiegand, I. et al., 2008, Nat. Protoc., 3, 163-75; Clinical and Laboratory Standards Institute document M7-A7 7th Edition) to determine the MIC (minimal inhibitory concentration) values. The stock solutions of the peptide dendrimers were diluted serially by ⅔ in nutrient LB in 96-well microtiter plates. Bacteria were grown in nutrient LB overnight at 37° C. After dilution the bacteria were added to the peptides and incubated overnight (18-24 h) at 37° C. […] The position of the amino acids between the branching units seems to be optimal if the hydrophobic amino acid is the first counting from C-terminus and the charged one is on the second position. Introducing Ala as additional hydrophobic amino acid reduces activity (MSt-120). […] Also assembling charged or hydrophobic sections between the branching units leads to loss of activity whereas altering L-amino acids to D-amino acids maintains activity leading to the hypothesis that the mechanism of action should not be receptor mediated.

Row | SMILES | MIC E. coli DH5α [1] | MIC B. subtilis BR151 [2] | MIC P. aeruginosa PAO1 [3]
1 | CC(C)C[C@H](NC(=O)[C@H](CCCCN)NC(=O)[C@H](CC(C)C)NC(=O)[C@H](CCCCN)NC(=O)[C@H](CC(C)C)NC(=O)[C@H](CCCCN)NC(=O)[C@H](CC(C)C)NC(=O)[C@H](CCCCN)NC(=O)[C@H](CC(C)C)NC(=O)[C@H](CCCCN)NC(=O)[C@H](CC(C)C)NC(=O)[C@H](CCCCN)NC(=O)[C@H](CC(C)C)NC(=O)[C@@H](N)CCCCN)C(N)=O [MSt-117, KLKLKLKLKLKLKL, reference compound] (H-KLKLKLKLKLKLKL-NH2) | 13 µg/mL (≈ 7.62 µM) | 14 µg/mL (≈ 8.2 µM) | 
2 | CC(C)C[C@H](NC(=O)[C@H](CC(C)C)NC(=O)[C@H](CCCCNC(=O)[C@H](CC(C)C)NC(=O)[C@H](CC(C)C)NC(=O)[C@H](CCCCNC(=O)[C@H](CCCCN)NC(=O)[C@H](CCCCN)NC(=O)[C@H](CCCCNC(=O)[C@H](CCCCN)NC(=O)[C@@H](N)CCCCN)NC(=O)[C@H](CCCCN)NC(=O)[C@@H](N)CCCCN)NC(=O)[C@H](CCCCN)NC(=O)[C@H](CCCCN)NC(=O)[C@H](CCCCNC(=O)[C@H](CCCCN)NC(=O)[C@@H](N)CCCCN)NC(=O)[C@H](CCCCN)NC(=O)[C@@H](N)CCCCN)NC(=O)[C@H](CC(C)C)NC(=O)[C@H](CC(C)C)NC(=O)[C@H](CCCCNC(=O)[C@H](CCCCN)NC(=O)[C@H](CCCCN)NC(=O)[C@H](CCCCNC(=O)[C@H](CCCCN)NC(=O)[C@@H](N)CCCCN)NC(=O)[C@H](CCCCN)NC(=O)[C@@H](N)CCCCN)NC(=O)[C@H](CCCCN)NC(=O)[C@H](CCCCN)NC(=O)[C@H](CCCCNC(=O)[C@H](CCCCN)NC(=O)[C@@H](N)CCCCN)NC(=O)[C@H](CCCCN)NC(=O)[C@@H](N)CCCCN)C(N)=O [MSt-140, (KK)8(KKK)4(KLL)2(KLL)] (I: H-KKK([Lys-Lys])KKKLLKLL-NH2 / II: H-KKK([Lys-Lys])KKKLL / III: H-KKK([Lys-Lys])KK / IV: H-KKK([Lys-Lys])KK; amide I:6-IV:C, I:9-II:C, II:6-III:C) | >95 µg/mL | 6 µg/mL (≈ 1.28 µM) | 
3 | CC(C)C[C@H](NC(=O)[C@H](CCCCNC(=O)[C@H](CC(C)C)NC(=O)[C@H](CCCCNC(=O)[C@H](CCCCN)NC(=O)[C@H](CCCCNC(=O)[C@@H](N)CCCCN)NC(=O)[C@@H](N)CCCCN)NC(=O)[C@H](CCCCN)NC(=O)[C@H](CCCCNC(=O)[C@@H](N)CCCCN)NC(=O)[C@@H](N)CCCCN)NC(=O)[C@H](CC(C)C)NC(=O)[C@H](CCCCNC(=O)[C@H](CCCCN)NC(=O)[C@H](CCCCNC(=O)[C@@H](N)CCCCN)NC(=O)[C@@H](N)CCCCN)NC(=O)[C@H](CCCCN)NC(=O)[C@H](CCCCNC(=O)[C@@H](N)CCCCN)NC(=O)[C@@H](N)CCCCN)C(N)=O [MSt-148, (K)8(KK)4(KL)2(KL)NH2] (I: H-KK(Lys)KK([Lys-X2])LKL-NH2 / II: H-KK(Lys)KK([Lys-X2])L; amide I:6-II:C; N-terminus assumed) | >90 µg/mL | 12 µg/mL (≈ 4.3 µM) | 
4 | CC(C)C[C@H](NC(=O)[C@H](CC(C)C)NC(=O)[C@H](CCCCNC(=O)[C@H](CCCCN)NC(=O)[C@H](CCCCN)NC(=O)[C@H](CCCCNC(=O)[C@H](CC(C)C)NC(=O)[C@H](CC(C)C)NC(=O)[C@H](CCCCNC(=O)[C@H](CCCCN)NC(=O)[C@@H](N)CCCCN)NC(=O)[C@H](CCCCN)NC(=O)[C@@H](N)CCCCN)NC(=O)[C@H](CC(C)C)NC(=O)[C@H](CC(C)C)NC(=O)[C@H](CCCCNC(=O)[C@H](CCCCN)NC(=O)[C@@H](N)CCCCN)NC(=O)[C@H](CCCCN)NC(=O)[C@@H](N)CCCCN)NC(=O)[C@H](CCCCN)NC(=O)[C@H](CCCCN)NC(=O)[C@H](CCCCNC(=O)[C@H](CC(C)C)NC(=O)[C@H](CC(C)C)NC(=O)[C@H](CCCCNC(=O)[C@H](CCCCN)NC(=O)[C@@H](N)CCCCN)NC(=O)[C@H](CCCCN)NC(=O)[C@@H](N)CCCCN)NC(=O)[C@H](CC(C)C)NC(=O)[C@H](CC(C)C)NC(=O)[C@H](CCCCNC(=O)[C@H](CCCCN)NC(=O)[C@@H](N)CCCCN)NC(=O)[C@H](CCCCN)NC(=O)[C@@H](N)CCCCN)C(N)=O [MSt-179, (KK)8(KLL)4(KKK)2(KLL)] (I: H-KKK([Lys-Lys])LLKKKKLL-NH2 / II: H-KKK([Lys-Lys])LLKKK / III: H-KKK([Lys-Lys])LL / IV: H-KKK([Lys-Lys])LL; amide I:6-IV:C, I:9-II:C, II:6-III:C; N-terminus assumed) | >66 µg/mL |  | 
5 | CC(C)C[C@H](NC(=O)[C@H](CCCCNC(=O)[C@H](CCCCN)NC(=O)[C@H](CC(C)C)NC(=O)[C@H](CCCCNC(=O)[C@H](CCCCN)NC(=O)[C@H](CC(C)C)NC(=O)[C@H](CCCCNC(=O)[C@H](CCCCN)NC(=O)[C@@H](N)CC(C)C)NC(=O)[C@H](CCCCN)NC(=O)[C@@H](N)CC(C)C)NC(=O)[C@H](CCCCN)NC(=O)[C@H](CC(C)C)NC(=O)[C@H](CCCCNC(=O)[C@H](CCCCN)NC(=O)[C@@H](N)CC(C)C)NC(=O)[C@H](CCCCN)NC(=O)[C@@H](N)CC(C)C)NC(=O)[C@H](CCCCN)NC(=O)[C@H](CC(C)C)NC(=O)[C@H](CCCCNC(=O)[C@H](CCCCN)NC(=O)[C@H](CC(C)C)NC(=O)[C@H](CCCCNC(=O)[C@H](CCCCN)NC(=O)[C@@H](N)CC(C)C)NC(=O)[C@H](CCCCN)NC(=O)[C@@H](N)CC(C)C)NC(=O)[C@H](CCCCN)NC(=O)[C@H](CC(C)C)NC(=O)[C@H](CCCCNC(=O)[C@H](CCCCN)NC(=O)[C@@H](N)CC(C)C)NC(=O)[C@H](CCCCN)NC(=O)[C@@H](N)CC(C)C)C(=O)N[C@@H](CCCCN)C(N)=O [MSt-199, (LK)8(KLK)4(KLK)2(KLK)] (I: H-LKK([Lys-Leu])LKKLKKLK-NH2 / II: H-LKK([Lys-Leu])LKKLK / III: H-LKK([Lys-Leu])LK / IV: H-LKK([Lys-Leu])LK; amide I:6-IV:C, I:9-II:C, II:6-III:C) |  | 3 µg/mL (≈ 0.662 µM) | 9 µg/mL (≈ 1.98 µM)
6 | CCCCCCCCCCCCCCCC(=O)NCCCC[C@H](NC(=O)[C@H](CC(C)C)NC(=O)[C@H](CCCCN)NC(=O)[C@H](CCCCNC(=O)[C@H](CC(C)C)NC(=O)[C@H](CCCCN)NC(=O)[C@H](CCCCNC(=O)[C@H](CC(C)C)NC(=O)[C@H](CCCCN)NC(=O)[C@H](CCCCNC(=O)[C@H](CC(C)C)NC(=O)[C@@H](N)CCCCN)NC(=O)[C@H](CC(C)C)NC(=O)[C@@H](N)CCCCN)NC(=O)[C@H](CC(C)C)NC(=O)[C@H](CCCCN)NC(=O)[C@H](CCCCNC(=O)[C@H](CC(C)C)NC(=O)[C@@H](N)CCCCN)NC(=O)[C@H](CC(C)C)NC(=O)[C@@H](N)CCCCN)NC(=O)[C@H](CC(C)C)NC(=O)[C@H](CCCCN)NC(=O)[C@H](CCCCNC(=O)[C@H](CC(C)C)NC(=O)[C@H](CCCCN)NC(=O)[C@H](CCCCNC(=O)[C@H](CC(C)C)NC(=O)[C@@H](N)CCCCN)NC(=O)[C@H](CC(C)C)NC(=O)[C@@H](N)CCCCN)NC(=O)[C@H](CC(C)C)NC(=O)[C@H](CCCCN)NC(=O)[C@H](CCCCNC(=O)[C@H](CC(C)C)NC(=O)[C@@H](N)CCCCN)NC(=O)[C@H](CC(C)C)NC(=O)[C@@H](N)CCCCN)C(N)=O [MSt-301, (KL)8(KKL)4(KKL)2(KKLKC16)] (I: H-KLK([Leu-Lys])KLKKLKKLK(Palmitoyl)-NH2 / II: H-KLK([Leu-Lys])KLKKL / III: H-KLK([Leu-Lys])KL / IV: H-KLK([Leu-Lys])KL; amide I:6-IV:C, I:9-II:C, II:6-III:C) | 8 µg/mL (≈ 1.63 µM) |  | 11 µg/mL (≈ 2.24 µM)
7 | CCCCCCCCCCCCCCCC(=O)NCCCC[C@H](NC(=O)[C@H](CC(C)C)NC(=O)[C@H](CCCCN)NC(=O)[C@H](CCCCNC(=O)[C@H](CC(C)C)NC(=O)[C@H](CCCCN)NC(=O)[C@H](CCCCNC(=O)[C@H](CC(C)C)NC(=O)[C@@H](N)CCCCN)NC(=O)[C@H](CC(C)C)NC(=O)[C@@H](N)CCCCN)NC(=O)[C@H](CC(C)C)NC(=O)[C@H](CCCCN)NC(=O)[C@H](CCCCNC(=O)[C@H](CC(C)C)NC(=O)[C@@H](N)CCCCN)NC(=O)[C@H](CC(C)C)NC(=O)[C@@H](N)CCCCN)C(N)=O [MSt-302, (KL)4(KKL)2(KKLKC16)] (I: H-KLK([Leu-Lys])KLKKLK(Palmitoyl)-NH2 / II: H-KLK([Leu-Lys])KL; amide I:6-II:C) | 12 µg/mL (≈ 4.88 µM) |  | 

— patent publication US10336792B2, “Antimicrobial peptide dendrimers” (priority 2014, dated 2019)
